{"source": "paper PMC8881610", "about": "(Nature Communications, 2022)", "target": "T1, GIPR (Homo sapiens, UniProt P48546, Y145A)", "T1 construct": "acylated tirzepatide to the full-length or modified; Flag; expressed in transfected cells", "T1 sequence (P48546 22-466 Y145A)": "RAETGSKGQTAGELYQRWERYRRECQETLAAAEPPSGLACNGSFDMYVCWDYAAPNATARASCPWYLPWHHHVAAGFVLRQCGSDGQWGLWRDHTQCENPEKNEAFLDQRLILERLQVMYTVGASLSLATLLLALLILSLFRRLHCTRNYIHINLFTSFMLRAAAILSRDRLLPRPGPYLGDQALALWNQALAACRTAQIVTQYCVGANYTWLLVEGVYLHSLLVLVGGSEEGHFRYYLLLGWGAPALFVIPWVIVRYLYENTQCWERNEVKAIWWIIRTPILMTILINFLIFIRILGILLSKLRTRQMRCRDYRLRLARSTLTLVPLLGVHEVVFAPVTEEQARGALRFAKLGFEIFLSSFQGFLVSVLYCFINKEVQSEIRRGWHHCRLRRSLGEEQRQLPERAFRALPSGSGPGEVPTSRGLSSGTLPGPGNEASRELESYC", "assay": "Whole-cell binding assay, competition with 125I-GIP1-42", "conditions": "GIPR Y145A; CHO-K1", "procedure": "Human embryonic kidney 293 cells containing SV40 large T-antigen (HEK293T) were cultured in DMEM (Gibco) supplemented with 10% (v/v) fetal bovine serum (FBS, Gibco), 1 mM sodium pyruvate (Gibco) and 100 units/mL penicillin and 100 μg/mL streptomycin at 37 °C in 5% CO2. Chinese hamster ovary (CHO-K1) cells were cultured in F-12 (Gibco) containing 10% FBS, 100 units/mL penicillin and 100 μg/mL streptomycin at 37 °C in 5% CO2. For cAMP and receptor expression assays, HEK293T cells were seeded into 6-well cell culture plates at a density of 7 × 10^5 cells per well. After overnight incubation, cells were transfected with GIPR, GLP-1R or GCGR construct using Lipofectamine 2000 or Lipofectamine 3000 transfection reagent (Invitrogen). For whole-cell binding assay, CHO-K1 cells were seeded into 96-well fibronectin-treated cell culture plates at a density of 3 × 10^4 cells per well. […] Following 24 h culturing, the transfected cells were ready for use.\nFor GIPR, CHO-K1 cells were cultured in F-12 medium with 10% FBS and seeded at a density of 30,000 cells/well in Isoplate-96 plates (PerkinElmer). […] Fifty µL of scintillation cocktail (OptiPhase SuperMix, PerkinElmer) were added and the plates were subsequently counted for radioactivity (counts per minute, CPM) in a MicroBeta^2 microplate counter (PerkinElmer).", "data": [{"smiles": "CC[C@H](C)[C@H](NC(=O)[C@H](CC(C)C)NC(=O)[C@H](Cc1c[nH]c2ccccc12)NC(=O)[C@H](CCC(N)=O)NC(=O)[C@@H](NC(=O)[C@H](Cc1ccccc1)NC(=O)[C@H](C)NC(=O)[C@H](CCCCNC(=O)COCCOCCNC(=O)COCCOCCNC(=O)CC[C@H](NC(=O)CCCCCCCCCCCCCCCCCCC(=O)O)C(=O)O)NC(=O)[C@H](CCC(N)=O)NC(=O)[C@H](C)NC(=O)[C@@H](NC(=O)[C@H](CCCCN)NC(=O)[C@H](CC(=O)O)NC(=O)[C@H](CC(C)C)NC(=O)C(C)(C)NC(=O)[C@@H](NC(=O)[C@H](CO)NC(=O)[C@H](Cc1ccc(O)cc1)NC(=O)[C@H](CC(=O)O)NC(=O)[C@H](CO)NC(=O)[C@@H](NC(=O)[C@H](Cc1ccccc1)NC(=O)[C@@H](NC(=O)CNC(=O)[C@H](CCC(=O)O)NC(=O)C(C)(C)NC(=O)[C@@H](N)Cc1ccc(O)cc1)[C@@H](C)O)[C@@H](C)O)[C@@H](C)CC)[C@@H](C)CC)C(C)C)C(=O)N[C@@H](C)C(=O)NCC(=O)NCC(=O)N1CCC[C@H]1C(=O)N[C@@H](CO)C(=O)N[C@@H](CO)C(=O)NCC(=O)N[C@@H](C)C(=O)N1CCC[C@H]1C(=O)N1CCC[C@H]1C(=O)N1CCC[C@H]1C(=O)N[C@@H](CO)C(N)=O", "note": "[Tirzepatide]", "values": [{"measurement": "binding pIC50", "value": "N.B."}]}]}
